Values quoted from earlier work as cited in US20120263775A1, “PRODUCTION OF PESTICIDE GRANULATES IN A SPOUTED BED APPARATUS” (priority 2009, published 2012).
≈ marks a conversion by molar mass, not a printed value.

For `COC(=O)N(OC)c1ccccc1COc1ccn(-c2ccc(Cl)cc2)n1` [Pyraclostrobin, pyraclostrobin], the solubility in water is given as 2 µg/mL (≈ 5.16 µM).
